Assay results taken from PMC9698340, “Discovery and SAR Study of Quinoxaline–Arylfuran Derivatives as a New Class of Antitumor Agents” (Pharmaceutics, 2022).

Assays:
Type in all cases: cell-based
HeLa cells = test: CCK-8 antiproliferation assay, HeLa; settings: Homo sapiens; 20 μM, 48 h, CCK-8, mean ± SD; read-out: Inhibition Rate (%) at 20 μM, HeLa
Protocol: (§1) Human lung carcinoma cell lines A549, human cervical cancer cell lines HeLa, human prostate cancer cell lines PC3, human colorectal carcinoma cell lines HCT116, and human liver cells L02 were purchased from the Chinese Academy of Sciences Shanghai Cell Bank (Shanghai, China). HeLa, A549, PC3, HCT116, and L02 cells were cultured in DMEM Dulbecco’s Modified Eagle Medium (DMEM; Gibco Inc., Gaithersburg, MD, USA). All cultures were provided with 10% fetal bovine serum (FBS; YHSM, Beijing, China), 100 IU/mL penicillin, and 100 μg/mL streptomycin, and cells were incubated at 37 °C in an atmosphere of 5% CO2.
(§2) Cell viability was determined using a CCK-8 kit (Apexbio, Houston, TX, USA). […] Subsequently, absorbance was assessed at 450 nm. Three duplicates were set in each group.
(§3) All synthesized quinoxalines compounds were tested for in vitro cytotoxicity against four cancer cell lines (HeLa, PC3, A549, and HCT116). The inhibitory effects of these compounds were evaluated using the CCK-8 assay after treatment with 20 μM of each compound. […] The species of phenyl substituents have a significant effect on the activity. […] By comparison, hydrophobic substitution at the phenyl ring gave derivatives with relatively low potency (QW7–8). In addition, large substituents on the phenyl ring exerted an unfavorable influence on the potency of the compounds (QW8 and QW16).

PC3 cells = test: CCK-8 antiproliferation assay, PC3; settings: Homo sapiens, PC-3; 20 μM, 48 h, CCK-8, mean ± SD; read-out: Inhibition Rate (%) at 20 μM, PC3
Protocol: as §1, §2, §3

A549 cells = test: CCK-8 antiproliferation assay, A549; settings: Homo sapiens, 20 μM, 48 h, CCK-8, mean ± SD, read-out: Inhibition Rate (%) at 20 μM, A549
Protocol: as §1, §2, §3

HCT116 cells = test: CCK-8 antiproliferation assay, HCT116; settings: Homo sapiens, HCT-116; 20 μM, 48 h, CCK-8, mean ± SD; read-out: Inhibition Rate (%) at 20 μM, HCT116
Protocol: as §1, §2, §3

COc1cc(-c2cc(OC)c3ccccc3c2OC)c(OC)cc1-c1ccc(/C=N/NC(=O)c2cccnc2)o1 [QW19, (E)-N’-((5-(4-(1,4-dimethoxynaphthalen-2-yl)-2,5-dimethoxyphenyl)furan-2-yl)methylene)nicotinohydrazide]
inhibition at 20 µM (HeLa cells): 9.56 ± 0.65%
inhibition at 20 µM (PC3 cells): 8.37 ± 0.21%
inhibition at 20 µM (A549 cells): 0.15 ± 0.35%
inhibition at 20 µM (HCT116 cells): 4.61 ± 0.66%

COc1cc(-c2ccc(/C=N/NC(=O)c3ccc(O)cc3)o2)c(OC)cc1-c1cnc2ccccc2n1 [QW4, (E)-N’-((5-(2,5-dimethoxy-4-(quinoxalin-2-yl)phenyl)furan-2-yl)methylene)-4-hydroxybenzohydrazide]
inhibition at 20 µM (HeLa cells): 44.29 ± 0.05%
inhibition at 20 µM (PC3 cells): 38.74 ± 0.2%
inhibition at 20 µM (A549 cells): 25.5 ± 0.62%
inhibition at 20 µM (HCT116 cells): 30.7 ± 0.04%

COc1cc(-c2cc(OC)c3ccccc3c2OC)c(OC)cc1-c1ccc(/C=N/NC(=O)c2ccccc2)o1 [QW18, (E)-N’-((5-(4-(1,4-dimethoxynaphthalen-2-yl)-2,5-dimethoxyphenyl)furan-2-yl)methylene)benzohydrazide]
inhibition at 20 µM (HeLa cells): 4.3 ± 0.45%
inhibition at 20 µM (PC3 cells): 8.09 ± 0.13%
inhibition at 20 µM (A549 cells): 8.82 ± 0.08%
inhibition at 20 µM (HCT116 cells): 10.9 ± 0.46%

COc1cc(-c2cc(OC)c3ccccc3c2OC)c(OC)cc1-c1ccc(/C=N/NC(=O)c2ccc(F)cc2)o1 [QW17, (E)-N’-((5-(4-(1,4-dimethoxynaphthalen-2-yl)-2,5-dimethoxyphenyl)furan-2-yl)methylene)-4-fluorobenzohydrazide]
inhibition at 20 µM (HeLa cells): 6.49 ± 0.17%
inhibition at 20 µM (PC3 cells): 11.7 ± 0.66%
inhibition at 20 µM (A549 cells): 0.44 ± 0.16%
inhibition at 20 µM (HCT116 cells): 4.69 ± 0.5%

COc1cc(-c2cc(OC)c3ccccc3c2OC)c(OC)cc1-c1ccc(/C=N/NC(=O)c2ccc(O)cc2)o1 [QW20, (E)-N’-((5-(4-(1,4-dimethoxynaphthalen-2-yl)-2,5-dimethoxyphenyl)furan-2-yl)methylene)-4-hydroxybenzohydrazide]
inhibition at 20 µM (HeLa cells): 22.5 ± 0.25%
inhibition at 20 µM (PC3 cells): 15.6 ± 0.19%
inhibition at 20 µM (A549 cells): 18.73 ± 0.1%
inhibition at 20 µM (HCT116 cells): 48.5 ± 0.01%

COc1cc(-c2ccc(/C=N/NC(=O)c3ccccc3)o2)c(OC)cc1-c1cnc2ccccc2n1 [QW2, (E)-N’-((5-(2,5-dimethoxy-4-(quinoxalin-2-yl)phenyl)furan-2-yl)methylene)benzohydrazide]
inhibition at 20 µM (HeLa cells): 8.64 ± 0.26%
inhibition at 20 µM (PC3 cells): 1.76 ± 0.23%
inhibition at 20 µM (A549 cells): 6.46 ± 0.43%
inhibition at 20 µM (HCT116 cells): 17.8 ± 0.67%

COc1cc(-c2cc(OC)c3ccccc3c2OC)c(OC)cc1-c1ccc(/C=N/NC(=O)c2cccc(C)c2)o1 [QW23, (E)-N’-((5-(4-(1,4-dimethoxynaphthalen-2-yl)-2,5-dimethoxyphenyl)furan-2-yl)methylene)-3-methylbenzohydrazide]
inhibition at 20 µM (HeLa cells): 0.84 ± 0.64%
inhibition at 20 µM (PC3 cells): 2.99 ± 0.25%
inhibition at 20 µM (A549 cells): 1.87 ± 0.33%
inhibition at 20 µM (HCT116 cells): 2.26 ± 0.03%

COc1cc(-c2ccc(/C=N/NC(=O)c3cccc(C)c3)o2)c(OC)cc1-c1cnc2ccccc2n1 [QW7, (E)-N’-((5-(2,5-dimethoxy-4-(quinoxalin-2-yl)phenyl)furan-2-yl)methylene)-3-methylbenzohydrazide]
inhibition at 20 µM (HeLa cells): 8.46 ± 0.42%
inhibition at 20 µM (PC3 cells): 4.73 ± 0.01%
inhibition at 20 µM (A549 cells): 4.31 ± 0.08%
inhibition at 20 µM (HCT116 cells): 2.18 ± 0.38%

COc1cc(-c2ccc(/C=N/NC(=O)c3cccc(C)c3)o2)c(OC)cc1-c1ccc2nccnc2c1 [QW15, (E)-N’-((5-(2,5-dimethoxy-4-(quinoxalin-6-yl)phenyl)furan-2-yl)methylene)-3-methylbenzohydrazide]
inhibition at 20 µM (HeLa cells): 14.26 ± 0.12%
inhibition at 20 µM (PC3 cells): 13.77 ± 0.12%
inhibition at 20 µM (A549 cells): 9.44 ± 0.39%
inhibition at 20 µM (HCT116 cells): 18.8 ± 0.54%

COc1cc(-c2ccc(/C=N/NC(=O)c3ccc(F)cc3)o2)c(OC)cc1-c1ccc2nccnc2c1 [QW9, (E)-N’-((5-(2,5-dimethoxy-4-(quinoxalin-6-yl)phenyl)furan-2-yl)methylene)-4-fluorobenzohydrazide]
inhibition at 20 µM (HeLa cells): 17.1 ± 0.41%
inhibition at 20 µM (PC3 cells): 3.98 ± 0.49%
inhibition at 20 µM (A549 cells): 1.16 ± 0.63%
inhibition at 20 µM (HCT116 cells): 29.9 ± 0.57%
